# Assay results as given in patent publication US20260055065A1, “PYRIDAZINONE COMPOUNDS WHICH MODULATE MUTANT PROTEINS FOR TREATING RESPIRATORY DISEASES” (The Hospital for Sick Children, priority 2022, published 2026).
# Target: T1, deltaF508 CFTR (Homo sapiens, UniProt P13569, DEL508-508)
# T1 construct: host or cells: CFBE (cystic fibrosis bronchial-derived cell line)
# Assay: CFBE potentiator assay (FLIPR membrane potential, temperature-rescued)
# Type: cell-based
# Conditions: CFBE cells, 3 micromolar forskolin; bin 1 nM-100 nM; read-out: CFBE potentiator EC50 range
# Method: Cell culture: HEK293 cells stably expressing human deltaF508 CFTR were cultured in DMEM/F12 medium containing 10% fetal bovine serum (FBS) and 600 micrograms/mL geneticin. For functional CFTR assays, cryo-preserved cells were quickly thawed in a 37° C. water bath, diluted with warm DMEM/F12 medium containing 10% FBS, spun down at 300×g for 5 mins and resuspended in the same medium at a density of 300,000 cells/mL. A cystic fibrosis bronchial-derived cell line complemented with a 4.7 Kb deltaF508 CFTR cDNA (“CFBE”) was obtained from Dr. Dieter Gruenert under a license from UCSF. These cells were cultured in MEM with Earle's salt (Invitrogen)supplemented with 10% fetal bovine serum (Invitrogen) and 300 micrograms/mL hygromycin (Millipore). CFBE cells were grown on flasks coated with a fibronectin solution containing LHC basal medium (Invitrogen), 0.001% bovine serum albumin (Sigma), 1% v/v Vitrogen 100 (BD Bioscience) and 10 micrograms/mL human fibronectin (Life Technologies). All cells were grown at 37° C. and 5% CO2 unless specified for an assay.
# CFBE potentiator assay: CFBE cells were dissociated for 10 mins at 37° C. with Hank's balanced salt solution containing 0.6 mM EDTA and 10% of a 0.25% Trypsin/EDTA solution (all from Life Technologies). An equal amount of CFBE cell growth medium (see Cell culture above) was then added to the flasks and cells were spun at 500×g for 10 mins. Cells were re-suspended in cell medium at a density of 150,000 cells/mL and plated in 384-well black, poly-D-Lysine-coated plates (7,500 cells/well). Cells were then grown at 37° C., 5% CO2 for a total of 6-8 days to allow differentiation. Cell medium was changed every 2-3 days. The day before each experiment, culture medium was removed, fresh culture medium was added and cells were placed at 30° C., 5% CO2 for 18-24 hrs to allow temperature rescue of delF508 CFTR. Potentiation activity was measured as described above for HEK cells except cells were stained for exactly 60 mins, compounds (or DMSO for negative control) were mixed with assay buffer containing 3 micromolar forskolin, and the positive control wells had assay buffer containing 3 micromolar forskolin and 9 micromolar VX-770 (Selleckchem).
# Data analysis: CFTR activity was defined as maximum fluorescence signal after addition minus baseline fluorescence. All data were normalized to each plate's positive and negative controls and expressed as percent responses. Concentration response curves were analyzed by fitting the data to a 4-parameter logistic equation in Microcal's Origin or IDBS' Activity Base software.
# T1 sequence (P13569 with tags, fused parts or gaps DEL508-508): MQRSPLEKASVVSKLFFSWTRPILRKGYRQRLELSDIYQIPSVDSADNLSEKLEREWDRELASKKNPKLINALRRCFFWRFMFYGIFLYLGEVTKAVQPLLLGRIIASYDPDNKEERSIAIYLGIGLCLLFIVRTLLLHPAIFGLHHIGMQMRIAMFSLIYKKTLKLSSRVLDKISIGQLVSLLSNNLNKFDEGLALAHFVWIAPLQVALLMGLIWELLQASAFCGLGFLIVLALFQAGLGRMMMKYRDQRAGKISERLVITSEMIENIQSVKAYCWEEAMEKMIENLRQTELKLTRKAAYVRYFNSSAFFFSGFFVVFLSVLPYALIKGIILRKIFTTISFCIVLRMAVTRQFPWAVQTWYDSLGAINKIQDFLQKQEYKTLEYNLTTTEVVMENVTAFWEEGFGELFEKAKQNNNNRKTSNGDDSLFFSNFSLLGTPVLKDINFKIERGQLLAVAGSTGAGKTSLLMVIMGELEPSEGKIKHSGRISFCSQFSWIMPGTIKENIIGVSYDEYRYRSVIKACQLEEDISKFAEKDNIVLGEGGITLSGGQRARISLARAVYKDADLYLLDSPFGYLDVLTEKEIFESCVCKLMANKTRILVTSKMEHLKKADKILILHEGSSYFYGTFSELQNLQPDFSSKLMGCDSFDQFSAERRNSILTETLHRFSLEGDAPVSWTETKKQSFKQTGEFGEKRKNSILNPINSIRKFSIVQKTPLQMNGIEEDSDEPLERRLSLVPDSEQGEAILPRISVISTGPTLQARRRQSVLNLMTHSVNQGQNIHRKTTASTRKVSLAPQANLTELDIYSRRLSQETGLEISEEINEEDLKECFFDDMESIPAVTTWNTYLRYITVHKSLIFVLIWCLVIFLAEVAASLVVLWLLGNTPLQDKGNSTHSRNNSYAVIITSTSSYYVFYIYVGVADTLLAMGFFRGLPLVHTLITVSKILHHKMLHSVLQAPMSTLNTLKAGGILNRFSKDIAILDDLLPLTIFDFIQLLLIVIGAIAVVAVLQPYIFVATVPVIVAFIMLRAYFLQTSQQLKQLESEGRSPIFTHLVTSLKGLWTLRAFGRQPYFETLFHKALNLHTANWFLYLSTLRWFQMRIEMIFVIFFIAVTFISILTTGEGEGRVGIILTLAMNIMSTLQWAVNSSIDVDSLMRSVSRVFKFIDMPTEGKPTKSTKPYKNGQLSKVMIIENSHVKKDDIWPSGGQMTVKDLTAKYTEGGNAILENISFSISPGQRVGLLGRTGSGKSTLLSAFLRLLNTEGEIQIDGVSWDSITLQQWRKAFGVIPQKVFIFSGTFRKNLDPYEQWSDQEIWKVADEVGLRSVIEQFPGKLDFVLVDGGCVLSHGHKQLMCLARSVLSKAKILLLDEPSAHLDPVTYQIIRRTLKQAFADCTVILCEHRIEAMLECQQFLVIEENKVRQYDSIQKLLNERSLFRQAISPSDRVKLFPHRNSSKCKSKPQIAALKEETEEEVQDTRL
row,SMILES,EC50 [nM]
1,Nc1c(N2CCCCC2)c(-c2ccccc2)nn(-c2ccc(Cl)c(O)c2)c1=O,1 to 100
2,Nc1c(N2CCCC2)c(-c2ccc(F)cc2)nn(-c2ccc(Cl)c(O)c2)c1=O,1 to 100
3,Nc1c(N2CCCC2)c(-c2ccc(F)cc2)nn(-c2ccc(F)c(O)c2)c1=O,1 to 100
4,CC(C)c1ccc(-n2nc(-c3ccc(F)cc3)c(N3CCCC3)c(N)c2=O)cc1O,1 to 100
5,Cc1ccc(-n2nc(-c3ccc(F)cc3)c(N3CCCC3)c(N)c2=O)cc1O,1 to 100
6,Nc1c(N2CCCCC2)c(-c2ccccc2)nn(-c2ccc(C(F)(F)F)c(O)c2)c1=O,1 to 100
7,Nc1c(N2CCCCC2)c(-c2ccc(F)cc2)nn(-c2ccc(C(F)(F)F)c(O)c2)c1=O,1 to 100
8,Nc1c(N2CCCCC2)c(-c2ccc(F)cc2)nn(-c2cccc(O)c2)c1=O,1 to 100
9,Nc1c(N2CCCC2)c(-c2ccccc2)nn(-c2ccc(Cl)c(O)c2)c1=O,1 to 100
10,CC(C)c1ccc(-n2nc(-c3ccc(F)cc3)c(N3CCCCC3)c(N)c2=O)cc1O,1 to 100
11,CC(C)(C)c1ccc(-n2nc(-c3ccccc3)c(N3CCCC3)c(N)c2=O)cc1O,1 to 100
12,Nc1c(N2CCCCC2)c(-c2ccc(F)cc2)nn(-c2ccc(F)c(O)c2)c1=O,1 to 100
13,Cc1ccc(-n2nc(-c3ccccc3)c(N3CCCCC3)c(N)c2=O)cc1O,1 to 100
14,Cc1ccc(-n2nc(-c3ccc(F)cc3)c(N3CCCCC3)c(N)c2=O)cc1O,1 to 100
15,CC(C)c1ccc(-n2nc(-c3ccccc3)c(N3CCCCC3)c(N)c2=O)cc1O,1 to 100
16,Nc1c(N2CCCC2)c(-c2ccccc2)nn(-c2cccc(O)c2)c1=O,1 to 100
17,CC(C)(C)c1ccc(-n2nc(-c3ccccc3)c(N3CCCCC3)c(N)c2=O)cc1O,1 to 100
18,Nc1c(N2CCCC2)c(-c2ccc(F)cc2)nn(-c2ccc(C(F)(F)F)c(O)c2)c1=O,1 to 100
19,Nc1c(N2CCCCC2)c(-c2ccnc(C(F)(F)F)c2)nn(-c2cccc(O)c2)c1=O,1 to 100
20,CC(C)(C)c1ccc(-n2nc(-c3ccc(F)cc3)c(N3CCCC3)c(N)c2=O)cc1O,1 to 100
21,CC(C)c1ccc(-n2nc(-c3ccccc3)c(N3CCCC3)c(N)c2=O)cc1O,1 to 100
22,Nc1c(N2CCCCC2)c(-c2cccnc2)nn(-c2cccc(O)c2)c1=O,1 to 100
23,Nc1c(-n2cccn2)c(-c2ccccc2)nn(-c2cccc(O)c2)c1=O,1 to 100
24,Nc1c(N2CCC2)c(-c2ccccc2)nn(-c2cccc(O)c2)c1=O,1 to 100
25,Nc1c(N2CCCCC2)c(-c2ccccc2)nn(-c2cccc(O)c2)c1=O,1 to 100
26,Nc1c(N2CCCCC2)c(-c2ccncc2)nn(-c2cccc(O)c2)c1=O,1 to 100
27,CC(C)(C)c1ccc(-n2nc(-c3ccc(F)cc3)c(N3CCCCC3)c(N)c2=O)cc1O [drawing 37],1 to 100
28,Cc1ccccc1-c1nn(-c2cccc(O)c2)c(=O)c(N)c1N1CCCCC1 [drawing 38],1 to 100
29,CN(C)c1c(-c2ccccc2)nn(-c2cccc(O)c2)c(=O)c1N [drawing 45],1 to 100

# Same assay, conditions: CFBE cells, 3 micromolar forskolin; bin 100 nM-1 μM; read-out: CFBE potentiator EC50 range
row,SMILES,EC50 [nM]
1,Nc1c(N2CCCCC2)c(-c2ccccn2)nn(-c2cccc(O)c2)c1=O,100 to 1000
2,Nc1c(N2CCOCC2)c(-c2ccccc2)nn(-c2cccc(O)c2)c1=O,100 to 1000
3,Nc1c(N2CCCCC2)c(-c2ccccc2)nn(CC(O)C(F)(F)F)c1=O (centres unmarked),100 to 1000
4,CC(CO)n1nc(-c2ccccc2)c(N2CCCCC2)c(N)c1=O (centres unmarked),100 to 1000
5,Nc1c(N2CCCCC2)c(-c2ccccc2)nn(Cc2ccccc2)c1=O,100 to 1000

# Same assay, conditions: CFBE cells, 3 micromolar forskolin; bin 1 μM-10 μM; read-out: CFBE potentiator EC50 range
row,SMILES,EC50 [nM]
1,Nc1c(N2CCCCC2)c(-c2ccccc2)nn(CCCO)c1=O,1000 to 10000
2,N#CCCn1nc(-c2ccccc2)c(N2CCCCC2)c(N)c1=O,1000 to 10000

# Same assay, conditions: CFBE cells, 3 micromolar forskolin; read-out: CFBE potentiator assay pot. pEC50 (converted)
row,SMILES,EC50 [nM]
1,"Cc1ccccc1-c1nn(-c2cccc(O)c2)c(=O)c(N)c1N1CCCCC1 [Compound 15, 4-amino-2-(3-hydroxyphenyl)-5-(piperidin-1-yl)-6-(o-tolyl)pyridazin-3(2H)-one]",15.8
2,"CN(C)c1c(-c2ccccc2)nn(-c2cccc(O)c2)c(=O)c1N [Compound 21, 4-amino-5-(dimethylamino)-2-(3-hydroxyphenyl)-6-phenylpyridazin-3(2H)-one]",20
